Source: paper PMC9706033 (Journal of Microbiology and Biotechnology, 2021)
Where two headings read alike, the source gives them in different places. Blank lines part the entries; values can stand above or below the compound they belong to.

Assays:
[1] = test system: B16F10 melanoma cells; test: Cellular melanin content in α-MSH-stimulated B16F10 melanoma cells; assay type: cell-based; details: 72 h
Experimental: Cellular melanin content was determined by the method of Park et al. with minor modifications. The cells (5 × 10^4 cells/well) were seeded into 6-well plates and cultured for 24 h. […] Then, the cells were washed with PBS and lysed with lysis buffer, and the supernatant was removed by centrifugation at 16,000 g for 15 min at 4°C. The protein concentration of the supernatant was determined by the Bradford method. The pellet was dissolved in 1 M NaOH and measured at 405 nm using a microplate reader.

[2] = molecular target: T1, tyrosinase (Mus musculus, UniProt P11344); test: Cellular tyrosinase activity in α-MSH-stimulated B16F10 melanoma cells; assay type: cell-based; details: 48 h; for inhibition at 300 µM: B16-F10
T1 construct: endogenous in cells; host or cells: B16F10 melanoma cells, α-MSH-stimulated
T1 sequence (P11344 19-533): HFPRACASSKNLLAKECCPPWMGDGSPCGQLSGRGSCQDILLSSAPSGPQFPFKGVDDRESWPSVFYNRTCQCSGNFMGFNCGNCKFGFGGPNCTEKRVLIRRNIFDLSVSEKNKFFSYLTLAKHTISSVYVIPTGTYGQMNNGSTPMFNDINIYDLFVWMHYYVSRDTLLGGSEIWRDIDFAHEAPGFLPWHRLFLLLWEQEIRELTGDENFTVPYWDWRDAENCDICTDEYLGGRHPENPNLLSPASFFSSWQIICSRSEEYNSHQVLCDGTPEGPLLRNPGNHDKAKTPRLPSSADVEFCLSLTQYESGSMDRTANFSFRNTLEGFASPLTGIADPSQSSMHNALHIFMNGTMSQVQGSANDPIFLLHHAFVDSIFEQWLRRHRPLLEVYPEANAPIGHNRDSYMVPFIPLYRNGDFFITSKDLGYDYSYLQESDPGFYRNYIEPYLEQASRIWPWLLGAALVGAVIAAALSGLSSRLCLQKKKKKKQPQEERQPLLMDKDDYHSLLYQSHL

[3] = test system: tyrosinase; parameters: method as in PMID 7765966; details: tyrosinase of B16 mouse melanoma; cited from earlier work
[4] = Hydroxyl radical scavenging assay
[5] = test system: B16F10 melanoma cells; assay type: cell-based; details: mouse, 24 h
Experimental: Cell culture and cell viability assay. B16F10 melanoma cells were maintained in DMEM supplemented with 10% FBS, 100 U/ml penicillin, and 100 μg/ml streptomycin. The cells were cultured at 37°C under 5% CO2 in a humidified culture chamber. Cell viability was determined by 3-(4,5-dimethythiazol-2-yl)-2,5-diphenyl tetrazolium bromide (MTT) assay. The cells (6 × 10^3 cells/well) were seeded into 96-well plates and cultured for 24 h. […] After 24 h, the cells were washed with PBS, MTT reagent (0.5 mg/ml) was added to each well, and the cells were incubated at 37°C for 1 h. The supernatant in each well was discarded for the treatment with DMSO, which was used to dissolve the formazan crystals formed from viable cells. After the DMSO treatment, the absorbance of each well was measured at 595 nm using a microplate reader (Epoch, Biotek, USA).

[6] = humans; cited from earlier work
[7] = test system: polyphenol oxidases; details: cited from earlier work
[8] = test system: B16F10 cells; test: Cellular uptake assay (UPLC of medium and cell lysates); assay type: cell-based; details: after 24 h incubation with B16F10 cells; resveratrol 20 μM, glucosides 100 μM
Experimental: The cellular uptake assay was conducted following the method described by Moon et al. with minor modification. The B16F10 cells (2 × 10^5 cells/well) were seeded into 6-well plates. […] After 24 h of incubation, the medium was removed, and the cells were washed with PBS and then scraped off. […] The lysate was centrifuged at 16,000 g for 10 min and filtered by a 0.2 μm syringe filter. The cell extracts were analyzed by UPLC.

[9] = Water solubility determination (UPLC of supernatant); assay type: physicochemical
Experimental: Each sample was centrifuged at 16,000 g for 30 min. Subsequently, the supernatant of each sample was filtered, and the concentration of the compound in the supernatant as a water-soluble component was estimated by UPLC analysis.

[10] = DPPH free-radical scavenging assay
Experimental: DPPH free-radical scavenging capability and ferric reducing antioxidant power (FRAP) assay results were evaluated as described previously by Moon et al.. Hydroxy radical-scavenging assay was measured as described by Su et al.. Vitamin C was used as a positive control. Each assay was measured from 1 min to 30 h. The DPPH radical-scavenging activity was calculated as follows: DPPH radical-scavenging activity (%) = (1-Asample/Ablank) × 100, where Asample is the absorbance in the presence of the sample, and Ablank is the absorbance of the blank. Hydroxy radical-scavenging activity was calculated in accordance with the following formula: Hydroxy radical scavenging activity (%) = (Asample-Acontrol)/(Ablank-Acontrol) × 100, where Asample is the absorbance in the presence of the sample, Acontrol is the absorbance of the blank with H2O2, and Ablank is the absorbance of the blank without H2O2.

[11] = Stability against oxidative degradation in buffer solutions and cell culture medium; assay type: physicochemical; details: 37°C, up to 72 h, read-out: Half-life, t1/2 (converted)
[12] = parameters: method as in PMID 9599270; details: read-out: Antioxidant activity IC50; cited from earlier work
[13] = 100 μM, α-MSH-stimulated B16F10
[14] = distilled water, sonicated 1 h at room temperature
[15] = Buffer pH 2.0 (hydrochloric acid)
[16] = DMEM cell culture medium without FBS, DMEM (without FBS)
[17] = phosphate-buffered saline, PBS (pH 7.4)
[18] = simulated body fluid, SBF (pH 7.4)

Suppression of tyrosinase activity [2, 13]: 15.8%
inhibition at 300 µM ([2]; α-MSH-stimulated B16F10): 25.6%
SMILES: OC[C@H]1O[C@@H](Oc2ccc(O)cc2)[C@H](O)[C@@H](O)[C@@H]1O [arbutin]
Suppression of melanin synthesis ([1]; 100 μM): 51.2%
Suppression of melanin synthesis ([1]; 300 μM): 74.5%

SMILES: OC[C@H]1O[C@H](Oc2ccc(O)cc2)[C@H](O)[C@@H](O)[C@@H]1O [α-arbutin]
Inhibitory activity, times as strong as that of β-arbutin [3]: 10 times

EC50 ([4]; at 30 min): 138 µM
Suppression of tyrosinase activity ([2]; 20 μM, compared with cells treated with MSH alone): 70.5%
Amount remaining in the extracellular medium [8]: 59 % of the initial amount
Water solubility [9, 14]: 36 µg/mL
solubility at 1 h ([9]; distilled water, sonicated 1 h at room temperature, read-out: Water solubility (molar)): 157.7 µM
EC50 ([10]; at 30 min): 523 µM
EC50 ([10]; at 5 h): 118 µM
half-life at 10 mM [11, 15]: > 72 h
half-life at 10 mM ([11]; Buffer pH 9.0 (Tris-HCl)): 1.5 h
half-life at 10 mM [11, 16]: > 72 h
half-life at 10 mM [11, 17]: 28 h
half-life at 10 mM [11, 18]: 44 h
SMILES: Oc1ccc(/C=C/c2cc(O)cc(O)c2)cc1 [resveratrol, trans-3,5,4′-trihydroxystilbene]
Effect on growth of B16F10 cells [5]: inhibited the growth of B16F10 cells in a dose-dependent manner
Oral bioavailability [6]: less than 1%
Half-life (t1/2) in the reaction of polyphenol oxidases compared with piceid [7]: three times shorter

SMILES: OC[C@H]1O[C@H](Oc2ccc(C=Cc3cc(O)cc(O)c3)cc2)[C@H](O)[C@@H](O)[C@@H]1O [R1, resveratrol-4′-O-α-glucoside]
Water solubility [9, 14]: 515 µg/mL
Water solubility (molar) [9, 14]: 1319 µM

SMILES: OC[C@H]1O[C@@H](Oc2cc(O)cc(/C=C/c3ccc(O)cc3)c2)[C@H](O)[C@@H](O)[C@@H]1O [β-piceid]
EC50 ([4]; at 30 min): 215 µM
EC50 ([4]; at 5 h): 53.7 µM
Concentration affecting proliferation of B16F10 cells [5]: above 100 μM
Suppression of melanin synthesis ([1]; 100 μM): 36.5%
Suppression of melanin synthesis ([1]; 300 μM): 46.3%
Suppression of tyrosinase activity [2, 13]: 19.2%
inhibition at 300 µM ([2]; α-MSH-stimulated B16F10): 29.7%
solubility at 1 h ([9]; thermodynamic from solid, distilled water, sonicated 1 h at room temperature, read-out: Water solubility): 137 µg/mL
solubility at 1 h ([9]; thermodynamic from solid, distilled water, sonicated 1 h at room temperature, read-out: Water solubility (molar)): 351 µM
EC50 ([10]; at 30 min): 441 µM
EC50 ([10]; at 5 h): 699 µM
half-life at 10 mM [11, 15]: > 72 h
half-life at 10 mM ([11]; Buffer pH 9.0 (Tris-HCl)): > 72 h
half-life at 10 mM [11, 16]: > 72 h
half-life at 10 mM [11, 17]: > 72 h
half-life at 10 mM [11, 18]: > 72 h
IC50 [12]: 198 µM

SMILES: OC[C@H]1O[C@@H](Oc2ccc(/C=C/c3cc(O)cc(O)c3)cc2)[C@H](O)[C@@H](O)[C@@H]1O [resveratrol-4′-O-β-glucoside]
IC50 [12]: 1000 µM

SMILES: O=C1O[C@H]([C@@H](O)CO)C(O)=C1O [vitamin C]
Time to scavenge the DPPH radical [10]: ≤ 30 min

Water solubility [9]: 471 µg/mL
Water solubility (molar) [9]: 1206 µM
SMILES: OC[C@H]1O[C@H](Oc2cc(O)cc(C=Cc3ccc(O)cc3)c2)[C@H](O)[C@@H](O)[C@@H]1O [R2, resveratrol-3-O-α-glucoside]
